Results as given in patent US9540373B2, “Substituted spirocycles” (Boehringer Ingelheim International GmbH, priority 2014, dated 2017).

Legend:
[1] = Determination of metabolic stability with human liver microsomes; format: in vitro ADME; details: pH 7.6; pooled human liver microsomes, 1 mg/ml protein, 1 μM compound, 37° C., NADPH; read-out: In vitro stability in human liver microsome incubations t1/2
Protocol: Determination of Metabolic Stability with Human Liver Microsomes
The metabolic degradation of the test compound is assayed at 37° C. with pooled human liver microsomes. The final incubation volume of 100 μl per time point contains TRIS buffer pH 7.6 (0.1 M), magnesium chloride (5 mM), microsomal protein (1 mg/ml) and the test compound at a final concentration of 1 μM. Following a short preincubation period at 37° C., the reactions are initiated by addition of beta-nicotinamide adenine dinucleotide phosphate, reduced form (NADPH, 1 mM) and terminated by transferring an aliquot into acetonitrile after different time points. Additionally, the NADPH-independent degradation is monitored in incubations without NADPH, terminated at the last time point. The [%] remaining test compound after NADPH independent incubation is reflected by the parameter c (control) (metabolic stability). The quenched incubations are pelleted by centrifugation (10′000 g, 5 min.) An aliquot of the supernatant is assayed by LC-MS/MS for the amount of parent compound.
The half-life (t1/2 INVITRO) is determined by the slope of the semilogarithmic plot of the concentration-time profile. The intrinsic clearance (CL_INTRINSIC) is calculated by considering the amount of protein in the incubation: CL_INTRINSIC [μl/min/mg protein]=(ln 2/(half-life [min]*protein content [mg/ml]))*1′000.

[2] = system: neutrophil elastase activity in U937 cells; test: Determination of neutrophil elastase activity in U937 cytosolic lysate preparation after incubation with test compound; format: cell-based; details: Homo sapiens, U-937; U937 cells incubated 48 hours with compound, NE activity in lysate; read-out: Reduction of NE-activity in U937 cells IC50
Protocol: Determination of Neutrophil Elastase Activity in U937 Cytosolic Lysate Preparation after Incubation with Test Compound Materials:
24 well Nunclon cell culture plates (No. 142475) and 96 well plates (No. 267245) were from Nunc.
Dimethylsulfoxid (DMSO) was from Sigma (Prod. No. D8418). Nonidet-P40 (NP40) was from USBiological (Prod. No. N3500)
Substrate, specific for Neutrophil elastase, was from Bachem (MeOSuc-Ala-Ala-Pro-Val-AMC; Prod. No. I-1270).
Human neutrophil elastase was from Calbiochem (Prod. No. 324681)
Tris-buffer (100 mM Tris; 1M NaCl; pH 7.5)
Tris-buffer+HSA 0.1%; Human Serum Albumin from Calbiochem (Cat#. 126658)
Serine-protease buffer (20 mM Tris; 100 mM NaCl; pH 7.5)+0.1% HSA
Serine protease lysis buffer: 20 mM Tris-HCl; 100 mM NaCl pH 7.5; +0.2% Nonidet-P40;
PBS: phosphate buffered saline, without Ca and Mg, from Gibco
U937 from ECACC (Cat. No. 85011440) cultured in suspension at 37° C. and 5% CO2.
Cell density: 0.2-1 Mio. Cells/ml.
Medium: RPMI1640 GlutaMAX (No. 61870) with 10% FCS from Gibco
Cell Seeding and Treatment:
Compounds in 100% DMSO were diluted in Medium (−FCS) with 10% DMSO and further diluted according to the experiment planned.
20 μl of the compound solution was transferred in the respective wells of the 24 well plate and diluted with 2 ml cell suspension/well containing 1×10^5 cells/ml (final concentration of DMSO=0.1%). Compound dilution factor=100
Compounds (up to 7 concentrations) were tested in triplicates with 3 wells for the DMSO 0.1% control, incubated for 48 hours without medium change at 37° C., 5% CO2 and 95% relative humidity.
Cell Harvesting and Cell Lysate:
Transfer the cell suspension in 2 ml 96 well assay block. Separate cells from medium by centrifugation (500×g; 10 min; RT); discard the supernatant. Resuspend in 1 ml PBS; centrifugation (500×g; 10 min; RT); wash cells twice with PBS. Add 80 μl Serine protease lysis buffer (ice cold) to the cell pellet; resuspend the pellet and store on ice for 10 minutes. Remove debris by centrifugation at 1000×g for 10 min at 4° C. Transfer 80-100 μl lysate supernatant in 96 well plate and store immediately at −80° C.
Neutrophil Elastase Activity Assay:
Frozen lysates were thaw at 37° C. for 10 minutes and stored on ice. Protein content was determined with Bradford protein assay. Lysates were diluted to 0.2-0.5 mg/ml protein in serine protease buffer+HSA.
Standard: NE (100 μg/ml stock solution in Tris-buffer; stored at −80° C.) was diluted in Tris-buffer+HSA to 750 ng/ml, and further serially diluted 1:2 for the standard curve. Buffer, blank, standard and lysate samples were transferred into 384 well plate
Blank: 5 μl Tris-buffer+10 μl Serine protease buffer+5 μl Substrate
Standard: 5 μl Tris-buffer+10 μl NE (diff. conc.)+5 μl Substrate
Lysate: 5 μl Tris-buffer+10 μl Lysat+5 μl Substrate
The increase in fluorescence (Ex360 nm/Em 460 nm) is determined after 30 minutes with a Molecular Device Spectramax M5 Fluorescence Reader. The result is interpolated to ng/mg lysate protein using excel formula functions. Percent inhibition in the compound-treated lysate samples is calculated relative to the DMSO-treated control-sample (100−(compound-sample*100)/control-sample)
A test compound will give values between 0% and 100% inhibition of neutrophil elastase. IC50 is calculated using Graphpad Prism; nonlinear fitting (log(inhibitor) vs. response—Variable slope). The IC50 value is interpolated as the concentration of test compound which leads to a neutrophil elastase activity reduction of 50% (relative to the DMSO-treated control).

[3] = target: recombinant human DPPI (Cathepsin C) (Homo sapiens (Human), UniProt P53634); test: Inhibition of human DPPI (Cathepsin C); format: biochemical; details: recombinant human DPPI, substrate Gly-Arg-AMC, pH 6.0; read-out: Inhibition of DPPI IC50
Protocol: Inhibition of Human DPPI (Cathepsin C)
The analysis of the data was performed by calculating the percentage of fluorescence in the presence of test compound in comparison to the fluorescence of the vehicle control after 20 subtracting the background fluorescence using the following formula: (RFU(sample)−RFU(background))*100/(RFU(control)−RFU(background))
Data from these calculations were used to generate IC50 values for inhibition of DPPI, respectively.

[4] = system: neutrophil elastase activity in BALF cell lysate; test: Target engagement mouse model: neutrophil elastase activity in BALF cell lysate after LPS challenge; format: in vivo; details: female Crl:NMRI mice, 0.5 mg/kg bid for 7 days, oral, LPS inhalation challenge
Protocol: Target Engagement Mouse Model Compound Treatment:
To monitor the effect of the test compounds on neutrophil elastase activity in peripheral neutrophils, female Crl:NMRI mice were treated as follows:
Group 1 (6 animals): 0.5 mg/kg test compound in 0.5% Natrosol (pH 2-3)
Group 2 (6 animals): 0.5% Natrosol (pH 2-3)
Group 3 (2 animals): 0.5% Natrosol (pH 2-3)
Test compounds or Natrosol solution were applied on Monday to Friday at 7:00 am and 4:00 pm each day of the first week of the study and on Monday and Tuesday (7:00 am and 4:00 pm) the second week. Test compounds or Natrosol were applied orally.
LPS Challenge and Bronchioalveolar Lavage Preparation: […]
4 hours after the LPS challenge a bronchioalveolar lavage using 2×1 ml Hank's salt solution per animal was prepared from all animals and the cell numbers in the lavage fluid determined using a Sysmex XT-1800i. […]
NE activity in the BALF (bronchioalveolar lavage fluid) cell lysate was measured using the fluorescent NE substrate MeOSuc-Ala-Ala-Pro-Val-AMC (Bachem): 10 μl cell lysate were mixed with 5 μl assay buffer (20 mM Tris pH 7.5, 100 mM NaCl, 0.1% human serum albumin) and 5 μl substrate (1 mM in assay buffer) in a 384 well plate (Optiplate 384f, PerkinElmer). The reaction mixture was incubated for 60 min at room temperature and the fluorescence measured (360 nm excitation, 460 nm emission). […]

Sequence of recombinant human DPPI (Cathepsin C) (P53634 231-394): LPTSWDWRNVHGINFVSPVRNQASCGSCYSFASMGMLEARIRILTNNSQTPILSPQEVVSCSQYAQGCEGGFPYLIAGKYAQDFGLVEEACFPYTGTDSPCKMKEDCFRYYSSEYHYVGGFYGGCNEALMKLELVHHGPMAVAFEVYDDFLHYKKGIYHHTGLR
Sequence of recombinant human DPPI (Cathepsin C) (P53634 25-134): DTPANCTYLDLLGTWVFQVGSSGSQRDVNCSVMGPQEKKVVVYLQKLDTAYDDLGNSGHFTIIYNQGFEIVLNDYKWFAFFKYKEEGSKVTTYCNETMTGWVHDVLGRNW
Sequence of recombinant human DPPI (Cathepsin C) (P53634 395-463): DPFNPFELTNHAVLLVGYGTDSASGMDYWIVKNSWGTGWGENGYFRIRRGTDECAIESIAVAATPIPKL

Row | SMILES | half-life at 1 μM [1] [h] | IC50 [2] [nM] | IC50 [3] [nM] | Inhibition of neutrophil elastase activity in BALF lysate after the pretreatment with Cathepsin C inhibitor [4] [%]
1 | N#C[C@H](Cc1ccc(-c2ccc3c(n2)C2(CCN(C4COC4)CC2)OC3)cc1F)NC(=O)[C@H]1N[C@@H]2CC[C@H]1C2 [Example 25, (1S,2S,4R)—N-[(1S)-1-cyano-2-[2-fluoro-4-[1′-(oxetan-3-yl)spiro[5H-furo[3,4-b]pyridine-7,4′-piperidine]-2-yl]phenyl]ethyl]-3-azabicyclo[2.2.1]heptane-2-carboxamide] | > 2.17 | 1.6 | 1.8 | 94
2 | N#C[C@H](Cc1ccc(-c2ccc3c(c2)C2(CCN(C4COC4)CC2)OC3)cc1F)NC(=O)[C@H]1N[C@@H]2CC[C@H]1C2 [Example 1, (1S,2S,4R)—N-[(1S)-1-cyano-2-[2-fluoro-4-[1′-(oxetan-3-yl)spiro[1H-isobenzofuran-3,4′-piperidine]-5-yl]phenyl]ethyl]-3-azabicyclo[2.2.1]heptane-2-carboxamide] | > 2.17 | 1 | 1.1 | 96
3 | N#C[C@H](Cc1ccc(-c2cc3c(cn2)COC32CCN(C3COC3)CC2)cc1F)NC(=O)[C@H]1N[C@@H]2CC[C@H]1C2 [Example 23, (1S,2S,4R)—N-[(1S)-1-cyano-2-[2-fluoro-4-[1′-(oxetan-3-yl)spiro[3H-furo[3,4-c]pyridine-1,4′-piperidine]-6-yl]phenyl]ethyl]-3-azabicyclo[2.2.1]heptane-2-carboxamide] | > 2.17 | 7.5 | 5 | –
